The source of these data is PubChem BioAssay AID1996.

Converted amounts (≈) assume the structure as drawn.

For this series the following is noted: buffer; pH 7.4; 200.0 µM.
Usually kinetic solubility stands for solubility judged after dilution from a stock solution rather than from solid. On to `Cc1cc(C)nc(Nc2cccc(Cl)c2)n1.Cl`, for which the kinetic solubility turned out to be 0.0059 mg/mL. The same measure for `COc1ccc(C)cc1NC(=O)NCc1ccccc1F`: 0.002 mg/mL (≈ 6.94 µM); for `COc1cccc(CN2CCSCC2)c1OC`: 0.0242 mg/mL (≈ 95.5 µM); for `COc1ccc(NC(=O)CN(C)CC(=O)N2CC(=O)Nc3ccccc32)cc1`: above 0.0574 mg/mL. For `Cc1cccc(-n2c(C)nc3ccccc3c2=O)c1C` the value was above 0.0396 mg/mL.

For `Cc1cc(Cl)ccc1OCC(=O)Nc1ccncc1`, the solubility (kinetic) is above 0.0415 mg/mL. The same measure for `Fc1cc(Cl)ccc1NC(=S)NCCN1CCOCC1`: above 0.0477 mg/mL; for `CC(=O)N1CCCC1(C(=O)O)c1ccccc1` (centres undefined): 0.0338 mg/mL (≈ 145 µM); for `O=C1Nc2ccc(S(=O)(=O)NCCCO)c3cccc1c23`: above 0.046 mg/mL.

For `O=C(NCc1cccnc1)Nc1ccc(Cl)cc1`, the solubility (kinetic) is above 0.0393 mg/mL. For `O=C(NCCCCc1ccccc1)c1ccc(F)cc1` the value was 0.0014 mg/mL (≈ 5.16 µM); for `O=c1[nH]c(SCCN2CCOCC2)nc(O)c1-c1ccccc1`, 0.0442 mg/mL (≈ 133 µM). Molecule `CCc1cccc(C)c1NC(=O)CC(C)(C)CC(=O)O` had a kinetic solubility above 0.0416 mg/mL. In the case of `Cl.Oc1ccc(CC2(N3CCCC3)CCCCC2)cc1`, the solubility (kinetic) came out at 0.0405 mg/mL. For `CC(=O)CCN1C(=O)NC2(CCCc3ccccc32)C1=O` (centres undefined) the value was above 0.0429 mg/mL; for `COC(=O)c1cccc(NC(=O)CN2C(=O)c3ccccc3C2=O)c1`, 0.0213 mg/mL (≈ 63 µM). For `COc1ccc(CCNC(=O)Nc2cccc([N+](=O)[O-])c2)cc1OC` the value was 0.0398 mg/mL (≈ 115 µM); for `CN(C)c1cccc2cccc(N(C)C)c12`, 0.0312 mg/mL (≈ 146 µM). In the case of `O=C1N/C(=N/S(=O)(=O)Cc2ccccc2)S/C1=C/c1ccc2c(c1)OCO2`, the solubility (kinetic) came to 0.051 mg/mL (≈ 127 µM). In turn, `CSc1nc2ccccc2c(=O)n1-c1cccnc1` gave a solubility (kinetic) of 0.0348 mg/mL (≈ 129 µM). For `CN(C)C(CNC(=O)c1coc2ccccc2c1=O)c1ccccc1` (centres undefined) the value was above 0.0505 mg/mL.

As to `COc1cc(/C=C(\NC(C)=O)C(=O)N2CCCCC2)ccc1OC(C)=O`, the kinetic solubility amounted to 0.0477 mg/mL (≈ 132 µM).

On to `Cc1csc(=O)n1CCC(=O)OCc1nnc(-c2ccccc2Cl)o1`, for which the kinetic solubility was above 0.057 mg/mL. For `COc1ccc(NC(=S)NC(=O)C2CCC2)cc1` the value was 0.0077 mg/mL (≈ 29.1 µM). With `CCN(CC)C(=O)Cc1c(OC)ccc2cc(Br)ccc12`, the solubility (kinetic) is 0.0177 mg/mL (≈ 50.5 µM).

`O=[N+]([O-])c1cccc(S(=O)(=O)/N=C(/Nc2ccccc2)c2ccccc2)c1` had a solubility (kinetic) of 0.0018 mg/mL (≈ 4.72 µM). For `O=C(COC(=O)Cc1ccc(S(=O)(=O)N2CCOCC2)s1)Nc1ccccc1` the value was 0.057 mg/mL (≈ 134 µM); for `CCOC(=O)c1sc(=NC(=O)c2ccc(OC(C)C)cc2)n(C)c1C`, below 0.0004 mg/mL. The same measure for `O=C(Nc1nncs1)C1CC(=O)N(C2CCCC2)C1` (centres undefined): above 0.0421 mg/mL; for `O=C(Nc1nc2cc3c(cc2s1)OCCO3)c1ccco1`: 0.0048 mg/mL (≈ 15.9 µM); for `Cc1ccc(S(=O)(=O)N2CCN(C(=O)N3CCCC3)CC2)cc1`: 0.0487 mg/mL (≈ 144 µM).

`O=C(O)C1C2CCC(O2)C1C(=O)Nc1ccc(Cl)cc1F` (centres undefined): the kinetic solubility was above 0.0471 mg/mL. The same measure for `COc1ccc(C(C)NC(=O)C23CC4CC(CC(C4)C2)C3)cc1` (centres undefined): 0.0008 mg/mL (≈ 2.55 µM); for `c1ccc(CCNc2nc(-c3ccncc3)nc3ccccc23)cc1`: 0.0003 mg/mL (≈ 0.919 µM).

For `Cc1cc(NC(=O)c2ccc3nccnc3c2)ccc1Br`, the kinetic solubility was found to be 0.0045 mg/mL (≈ 13.2 µM). In the case of `CCOC(=O)Nc1ccc(S(=O)(=O)Nc2onc(C)c2C)cc1`, the kinetic solubility is 0.0472 mg/mL (≈ 139 µM). The same measure for `COc1ccc(OC)c(NC(=O)CCC(=O)Oc2ccc(C)cc2)c1`: 0.0491 mg/mL (≈ 143 µM); for `Cc1ccnc(Cc2ccccc2)n1`: 0.0185 mg/mL (≈ 100 µM); for `CS(=O)(=O)c1ccc(Cl)c(NC(=O)CCNC(=O)c2ccco2)c1`: 0.0499 mg/mL (≈ 135 µM).

The molecule `NC(=O)C1CCN(C(=O)c2cc(-c3ccc(Cl)s3)nc3ccccc23)CC1` showed a kinetic solubility of 0.0094 mg/mL (≈ 23.5 µM). For `COc1ccc(CCNC2=NCCS2)cc1OC` the value was 0.0297 mg/mL (≈ 112 µM); for `O=C1N(Cc2ccc(F)cc2)CCN1c1ccc(F)cc1`, 0.0293 mg/mL (≈ 102 µM); for `CN(C)S(=O)(=O)c1cccc(NC(=O)CCNC(=O)Nc2ccccc2)c1`, above 0.0586 mg/mL. The same measure for `Cl.O=C(NCCN1CCCC1)c1ccc(Cl)cc1Cl`: above 0.0485 mg/mL; for `O=C(Cn1cc([N+](=O)[O-])ccc1=O)NCC(=O)Nc1ccc(F)c(F)c1F`: 0.0092 mg/mL (≈ 23.9 µM); for `CCS(=O)(=O)CCn1c([N+](=O)[O-])cnc1C`: above 0.0371 mg/mL.

Consider `O=c1[nH]c(=S)[nH]c2c1CN(Cc1ccc(F)cc1)CC2`, for which the kinetic solubility was 0.0286 mg/mL (≈ 98.2 µM). The molecule `CC1CC(C)CN(C(=O)CNC(=O)c2ccc3ccccc3c2)C1` (centres undefined) registered a kinetic solubility above 0.0487 mg/mL. For `COc1ccc2c(c1OC)C(=O)N(c1cccc(NC(C)=O)c1)C2` the value was 0.0466 mg/mL (≈ 143 µM); for `Cc1ccc(/C=N/NC(=O)CN2CCN(Cc3ccccc3Cl)CC2)o1`, above 0.0562 mg/mL; for `CCCNC(=O)N1c2ccccc2Sc2ccccc21`, 0.0336 mg/mL (≈ 118 µM). The same measure for `Cc1nc(-c2cccs2)ccc1C(=O)O`: above 0.0329 mg/mL. For `CC1CC(NC(=O)/C(C#N)=C/c2ccc[nH]2)CC(C)(C)C1` (centres undefined) the value was below 0.0002 mg/mL. The molecule `CC(C)(C)c1nc2cc(Cl)c([N+](=O)[O-])cc2o1` returned a kinetic solubility of 0.0065 mg/mL (≈ 25.5 µM). The same measure for `S=C(NCc1ccco1)Nc1ccc(Br)cn1`: 0.005 mg/mL (≈ 16 µM); for `Cc1c(-c2ccccc2)nc(N)c(C#N)c1-c1cccnc1`: 0.005 mg/mL (≈ 17.5 µM). The molecule `CCN(CC(=O)NCc1ccc(F)cc1)C(=O)c1ccc(C)o1` showed a kinetic solubility above 0.0478 mg/mL. The same measure for `COc1ccc(/C=C/C(=O)OCC(=O)NC2CCCC(C)C2C)c(OC)c1` (centres undefined): 0.005 mg/mL (≈ 13.3 µM); for `O=C(c1ccco1)N1CCN(C(=O)N2CCCC2)CC1`: 0.0387 mg/mL (≈ 140 µM).

As for `CCCNC(=O)c1oc2ccc3c(c2c1C)C(O)CC(C)(C)O3` (centres undefined), the kinetic solubility is above 0.0476 mg/mL. `O=C(CSCc1ccc(Cl)cc1)Nc1ccc(O)cc1C(=O)O` yielded a kinetic solubility above 0.0528 mg/mL. For `CN(C)c1cccc(C(=O)NCc2ccc3c(c2)OCO3)c1` the value was above 0.0448 mg/mL; for `O=C(COC(=O)c1ccc(C(F)(F)F)cc1)Nc1cccc(S(=O)(=O)NC2=NCCCCC2)c1`, 0.0105 mg/mL (≈ 21.1 µM).

For `Cc1ccc(CN2CCN(c3cccc4[nH]ccc34)CC2)cc1`, the solubility (kinetic) was 0.0412 mg/mL (≈ 135 µM). For `CC(C)Cn1c(=S)[nH]c2cc(Cl)ccc21` the value was 0.0185 mg/mL (≈ 76.8 µM). Turning to `CCOc1cc(CN2CCc3c([nH]c4ccccc34)C2)ccc1OC`, the kinetic solubility turned out to be 0.0328 mg/mL (≈ 97.5 µM). This solubility kinetic is about 1.8-fold higher than that of the molecule before.

The molecule `COc1ccc(NC(=S)NC2CCCCC2)cn1` displayed a kinetic solubility above 0.0398 mg/mL.

`Cc1cc(C)c(NC(=O)c2ccc3nccnc3c2)c(C)c1`: the solubility (kinetic) was 0.0415 mg/mL (≈ 142 µM).

`Cc1[nH]c2ccccc2c1CCNC(=O)c1ccc2nccnc2c1` displayed a kinetic solubility of 0.0411 mg/mL (≈ 124 µM). As to `CC(C)c1ccc(CNC(=O)C(=O)NCC2CCCO2)cc1` (centres undefined), the kinetic solubility was 0.0285 mg/mL (≈ 93.6 µM). Regarding `C/C(CC(=O)Nc1ccc(Cl)cc1C(F)(F)F)=N\NC(N)=S`, the solubility (kinetic) was above 0.0529 mg/mL. The same measure for `Cc1csc(NC(=O)c2cc(C)nc3ccccc23)n1`: 0.0307 mg/mL (≈ 108 µM). Molecule `O=C(COC(=O)/C=C/c1ccc(C(F)(F)F)cc1)NCc1ccco1` displayed a kinetic solubility of 0.0357 mg/mL (≈ 101 µM). The molecule `COc1ccc(NC(=O)NC2(C)CCS(=O)(=O)C2)cc1` (centres undefined) came in with a solubility (kinetic) above 0.0448 mg/mL. For `Cc1nc(NCCOc2ccccc2)sc1C(=O)Nc1ccccc1` the value was 0.002 mg/mL (≈ 5.66 µM); for `CCCCc1nnc(NC(=O)C(=O)OCC)s1`, above 0.0386 mg/mL; for `CC(C)CNC(=O)CO/N=C/c1ccccc1Cl`, above 0.0403 mg/mL. Molecule `CCOc1ccc(NC(=O)c2ccc(CN3CCc4ccccc4C3)cc2)cc1` had a kinetic solubility below 0.0004 mg/mL. In the case of `Cc1ccc(CNc2nc(C)cs2)cc1`, the kinetic solubility is 0.0253 mg/mL (≈ 116 µM). As for `CC(C)(C)c1cc(CCC(=O)Nc2ccncc2)cc(C(C)(C)C)c1O`, the solubility (kinetic) stood at 0.0404 mg/mL (≈ 114 µM). Compared with the last molecule, the solubility kinetic is about 1.6-fold higher.

`CC1Oc2ccccc2OC1C(=O)Nc1nccs1` (centres undefined) displayed a solubility (kinetic) of 0.0181 mg/mL (≈ 65.5 µM).

In turn, `O=C(CN1C(=O)COc2ccc(Cl)cc21)Nc1ccccn1` had a solubility (kinetic) of 0.017 mg/mL (≈ 53.5 µM).

Turning to `CC(C)NC(=S)N1CCC(Cc2ccccc2)CC1`, the kinetic solubility is 0.0244 mg/mL (≈ 88.3 µM). For `Nc1nc2nc(-c3ccccc3)cc(C(F)(F)F)c2s1` the value was 0.0041 mg/mL (≈ 13.9 µM); for `N#C/C(=C\c1ccc(-c2ccccc2[N+](=O)[O-])o1)C(N)=O`, 0.0022 mg/mL (≈ 7.77 µM).

For the molecule `Brc1cc(Br)c2nc3c(cc2c1)CCC3`, the kinetic solubility was determined as 0.0019 mg/mL (≈ 5.81 µM). This solubility kinetic and that of the molecule before are within 1.5-fold of each other. Molecule `N#Cc1ccccc1NC(=O)c1ccc2c(c1)OCCO2` registered a solubility (kinetic) of 0.0374 mg/mL (≈ 133 µM).

In turn, `COc1ccc(NC(=O)COC(=O)CCSc2ccccc2)cc1` returned a solubility (kinetic) of 0.0106 mg/mL (≈ 30.7 µM).

In turn, `CCCCn1c(N)c(N(CC(C)C)C(=O)c2cnccn2)c(=O)[nH]c1=O` showed a solubility (kinetic) of 0.0539 mg/mL (≈ 150 µM). The same measure for `CCOC(=O)c1ccc(S(=O)(=O)N2CCN(C(C)=O)CC2)cc1`: above 0.0511 mg/mL. `CS(=O)(=O)N1CCCC(C(=O)Nc2ccccc2C(F)(F)F)C1` (centres undefined) had a solubility (kinetic) above 0.0526 mg/mL.

Molecule `COc1ccc(CCNC(=O)c2cnc3ccccc3n2)cc1` came in with a solubility (kinetic) of 0.0402 mg/mL (≈ 131 µM).

The molecule `O=C1CN(S(=O)(=O)c2ccccc2)c2ccccc2N1` came in with a solubility (kinetic) above 0.0432 mg/mL.

Molecule `O=C(c1cccnc1)N1CCCC(Nc2ccc(F)cc2)C1` (centres undefined) showed a solubility (kinetic) of 0.0416 mg/mL (≈ 139 µM). `CCCCn1c(=S)[nH]c2cc(S(=O)(=O)N3CCOCC3)ccc21`: the kinetic solubility was above 0.0533 mg/mL. The molecule `CCC(=O)N1CCN(c2ccnc3cc(Cl)ccc23)CC1` yielded a solubility (kinetic) of 0.0404 mg/mL (≈ 133 µM). Take `N/C(=N\OC(=O)C12CC3CC(CC(C3)C1)C2)c1ccncc1`: the kinetic solubility stood at 0.017 mg/mL (≈ 56.8 µM).

`Cc1snc(SCc2ccc(Cl)cc2)c1C#N` had a solubility (kinetic) below 0.0003 mg/mL. The same measure for `O=C(c1ccccc1)c1cc2c(cc1[N+](=O)[O-])OCCO2`: 0.0073 mg/mL (≈ 25.6 µM); for `N#Cc1c(Nc2ccccc2Cl)s[nH]c1=O`: above 0.0378 mg/mL. Take `N#Cc1c(N2CCN(c3ccc(F)cc3)CC2)nc(N)c2c(N)nc3c(c12)CC(=O)N3C1CC1`: the kinetic solubility is 0.0008 mg/mL (≈ 1.74 µM). For `CCOc1cccc(NC(=O)/C(C#N)=C\c2cccnc2)c1` the value was 0.0304 mg/mL (≈ 104 µM); for `CC(C)NC(=O)c1ccc(CSCc2ccccc2Cl)o1`, above 0.0486 mg/mL.

On to `Cc1cccc(OCC(=O)N2CCc3ccccc3C2)c1`, for which the kinetic solubility was 0.0346 mg/mL (≈ 123 µM).
